The results in this text go back to patent US20260146035A1, “FUSED BICYCLIC COMPOUNDS AND THEIR USE AS MER AND AXL INHIBITORS” (DONG-A ST CO., LTD., priority 2022, published 2026).

One assay addresses T1, human AXL (473-end) (Homo sapiens, UniProt P30530).
T1 construct: human AXL (473-end); purchased SignalChem, Canada
T1 sequence (P30530 473-894 limits assumed): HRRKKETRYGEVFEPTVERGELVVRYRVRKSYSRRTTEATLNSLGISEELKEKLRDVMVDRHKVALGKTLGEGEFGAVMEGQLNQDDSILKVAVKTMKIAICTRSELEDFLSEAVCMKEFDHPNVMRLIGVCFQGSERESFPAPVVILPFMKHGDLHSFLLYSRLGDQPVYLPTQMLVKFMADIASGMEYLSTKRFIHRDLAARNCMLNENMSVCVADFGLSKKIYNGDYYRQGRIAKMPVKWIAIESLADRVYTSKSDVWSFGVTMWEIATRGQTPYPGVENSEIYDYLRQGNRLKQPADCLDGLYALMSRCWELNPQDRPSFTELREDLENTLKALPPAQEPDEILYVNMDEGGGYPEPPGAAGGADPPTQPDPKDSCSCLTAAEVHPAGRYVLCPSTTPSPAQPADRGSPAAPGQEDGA
The experiment in a line: HTRF kinase activity biochemical assay, AXL. Particulars: 10 μM ATP, 30 minutes pre-incubation. Background: Time-resolved FRET reads energy transfer from a long-lived donor to a nearby acceptor.

Another assay concerns the target T2, human MER (528-end) (Homo sapiens, UniProt Q12866).
T2 construct: human MER (528-end); purchased Camnabio, Japan
T2 sequence (Q12866 528-999 limits assumed): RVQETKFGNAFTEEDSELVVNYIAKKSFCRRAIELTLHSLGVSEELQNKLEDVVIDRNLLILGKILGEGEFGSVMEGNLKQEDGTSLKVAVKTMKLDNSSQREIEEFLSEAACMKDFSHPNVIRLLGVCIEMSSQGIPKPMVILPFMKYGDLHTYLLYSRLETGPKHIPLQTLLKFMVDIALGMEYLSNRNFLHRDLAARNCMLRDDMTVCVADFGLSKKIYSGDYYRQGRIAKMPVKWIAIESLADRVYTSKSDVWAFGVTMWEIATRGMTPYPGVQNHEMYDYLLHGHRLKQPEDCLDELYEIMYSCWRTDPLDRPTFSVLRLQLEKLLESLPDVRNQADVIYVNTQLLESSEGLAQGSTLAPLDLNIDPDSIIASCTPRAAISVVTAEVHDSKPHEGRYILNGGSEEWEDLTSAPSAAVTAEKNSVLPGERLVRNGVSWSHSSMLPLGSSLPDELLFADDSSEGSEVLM
The assay is described as follows: HTRF kinase activity biochemical assay, MER. Particulars: 10 μM ATP, 30 minutes pre-incubation; read-out: HTRF MERTK IC50.

Another assay concerns the target T3, human TYRO3 (455-end) (Homo sapiens, UniProt Q06418).
T3 construct: TYRO3 (455-end); purchased SignalChem, Canada
T3 sequence (Q06418 455-890 limits assumed): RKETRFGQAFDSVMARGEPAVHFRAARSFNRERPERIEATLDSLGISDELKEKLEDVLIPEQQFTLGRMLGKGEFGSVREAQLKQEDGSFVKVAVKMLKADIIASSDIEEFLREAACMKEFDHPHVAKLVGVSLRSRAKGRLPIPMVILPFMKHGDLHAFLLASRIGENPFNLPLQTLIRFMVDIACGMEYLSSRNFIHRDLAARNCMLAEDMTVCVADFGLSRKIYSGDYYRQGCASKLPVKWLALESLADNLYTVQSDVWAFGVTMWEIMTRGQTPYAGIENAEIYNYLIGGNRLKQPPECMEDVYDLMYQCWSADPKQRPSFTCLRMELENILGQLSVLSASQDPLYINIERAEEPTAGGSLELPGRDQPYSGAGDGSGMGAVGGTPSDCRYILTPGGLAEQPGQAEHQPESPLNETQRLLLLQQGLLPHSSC
The assay is described as follows: HTRF kinase activity biochemical assay, TYRO3. Particulars: 10 μM ATP, 30 minutes pre-incubation; read-out: HTRF TYRO IC50.

Where only a bound is given, the exact number is not on record here.

In general, IC50 refers to the point on the concentration scale where inhibition reaches its midpoint. Turning to `Cn1cc(-c2cnc(N)c(C(=O)N[C@H]3CCC[C@@H]3OCc3ccc(-c4ccc5c(ccn5CCO)c4)cc3)c2)cn1` [Example 57, 2-amino-N-[(1S,2S)-2-({4-[1-(2-hydroxyethyl)-1H-indol-5-yl]phenyl}methoxy)cyclopentyl]-5-(1-methyl-1H-pyrazol-4-yl)pyridine-3-carboxamide], the IC50 was 10 to 100 nM on human AXL (473-end), below 10 nM on human MER (528-end) and above 1000 nM on human TYRO3 (455-end).

For `Cn1cc(-c2cnc(N)c(C(=O)N[C@H]3CCC[C@@H]3OCc3ccc(-c4ccc5c(c4)CC(C)(C)C5N4CCN(CCO)CC4)cc3)c2)cn1` (stereo partly drawn) [Example 105, 2-amino-N-{(1S,2S)-2-[(4-{1-[4-(2-hydroxyethyl)piperazin-1-yl]-2,2-dimethyl-2,3-dihydro-1H-inden-5-yl}phenyl)methoxy]cyclopentyl}-5-(1-methyl-1H-pyrazol-4-yl)pyridine-3-carboxamide], the IC50 at human AXL (473-end) is below 10 nM; on human MER (528-end), below 10 nM; at human TYRO3 (455-end) it was 100 to 1000 nM.

In the case of `CC1(C)CC(N2CCN(CCO)CC2)c2ccc(-c3ccc(CO[C@H]4CCC[C@@H]4NC(=O)c4cc(C(F)(F)F)cnc4N)cc3)cc21` (stereo partly drawn) [Example 130, 2-amino-N-{(1S,2S)-2-[(4-{1-[4-(2-hydroxyethyl)piperazin-1-yl]-3,3-dimethyl-2,3-dihydro-1H-inden-5-yl}phenyl)methoxy]cyclopentyl}-5-(trifluoromethyl)pyridine-3-carboxamide], the IC50 is below 10 nM against human AXL (473-end), below 10 nM at human MER (528-end) and 100 to 1000 nM on human TYRO3 (455-end).

In the case of `CN(C)CCn1ccc2cc(-c3ccc(CO[C@H]4CCC[C@@H]4NC(=O)c4cc(-c5cnn(C)c5)cnc4N)cc3)ccc21` [Example 70, 2-amino-N-{(1S,2S)-2-[(4-{1-[2-(dimethylamino)ethyl]-1H-indol-5-yl}phenyl)methoxy]cyclopentyl}-5-(1-methyl-1H-pyrazol-4-yl)pyridine-3-carboxamide], the figures for the IC50 against human AXL (473-end), at human MER (528-end) and at human TYRO3 (455-end) were below 10 nM, below 10 nM and 100 to 1000 nM, respectively.

Take `Cn1ccc(-c2cc(C(=O)N[C@H]3CCC[C@@H]3OCc3ccc(-c4ccc5c(c4)CC(F)(F)C5N4CCN(CCO)CC4)cc3)cnc2N)cc1=O` (stereo partly drawn) [Example 87, amino-N-{(1S,2S)-2-[(4-{2,2-difluoro-1-[4-(2-hydroxyethyl)piperazin-1-yl]-2,3-dihydro-1H-inden-5-yl}phenyl)methoxy]cyclopentyl}-1′-methyl-2′-oxo-1′,2′-dihydro[3,4′-bipyridine]-5-carboxamide]: the concentration for half-maximal inhibition (IC50) is below 10 nM against human AXL (473-end), below 10 nM on human MER (528-end) and 100 to 1000 nM on human TYRO3 (455-end).

Turning to `CN1CCC(c2c[nH]c3cc(-c4ccc(CO[C@H]5CCC[C@@H]5NC(=O)c5cc(-c6cnn(C)c6)cnc5N)cc4)ccc23)CC1` [Example 15, 2-amino-N-[(1S,2S)-2-({4-[3-(1-methylpiperidin-4-yl)-1H-indol-6-yl]phenyl}methoxy)cyclopentyl]-5-(1-methyl-1H-pyrazol-4-yl)pyridine-3-carboxamide], the IC50 on human AXL (473-end) is 100 to 1000 nM; on human MER (528-end), 10 to 100 nM; on human TYRO3 (455-end), above 1000 nM.

Turning to `Cn1cc(-c2cnc(N)c(C(=O)N[C@H]3COC[C@@H]3OCc3ccc(-c4ccc5c(c4)C(C)(C)CN5C4CCN(CCO)CC4)cc3)n2)cn1` [Example 71, 3-amino-N-{(3S,4R)-4-[(4-{1-[1-(2-hydroxyethyl)piperidin-4-yl]-3,3-dimethyl-2,3-dihydro-1H-indol-5-yl}phenyl)methoxy]oxolan-3-yl}-6-(1-methyl-1H-pyrazol-4-yl)pyrazine-2-carboxamide], the IC50 at human AXL (473-end) is 10 to 100 nM; on human MER (528-end), below 10 nM; at human TYRO3 (455-end), 100 to 1000 nM.

Regarding `CCC1(C)CN(C2CCN(CCO)CC2)c2ccc(-c3ccc(CO[C@H]4CCC[C@@H]4NC(=O)c4cc(-c5cnn(C)c5)cnc4N)cc3)cc21` (mixture of isomers) [Example 40, 2-amino-N-{(1S,2S)-2-[(4-{3-ethyl-1-[1-(2-hydroxyethyl)piperidin-4-yl]-3-methyl-2,3-dihydro-1H-indol-5-yl}phenyl)methoxy]cyclopentyl}-5-(1-methyl-1H-pyrazol-4-yl)pyridine-3-carboxamide], the IC50 against human AXL (473-end), on human MER (528-end) and on human TYRO3 (455-end) was below 10 nM in each case.

Turning to `Nc1ncc(-c2ccccn2)cc1C(=O)N[C@H]1CCC[C@@H]1OCc1ccc(-c2ccc3c(c2)CC[C@@H]3N2CCN(CCO)CC2)cc1` [Example 177, 6′-amino-N-{(1S,2S)-2-[(4-{(1S)-1-[4-(2-hydroxyethyl)piperazin-1-yl]-2,3-dihydro-1H-inden-5-yl}phenyl)methoxy]cyclopentyl}[2,3′-bipyridine]-5′-carboxamide], the IC50 was below 10 nM against human AXL (473-end), below 10 nM on human MER (528-end) and 10 to 100 nM on human TYRO3 (455-end).

With `Nc1ncc(-c2cccnc2F)cc1C(=O)N[C@H]1CCC[C@@H]1OCc1ccc(-c2ccc3c(c2)OCCC3N2CCN(CCO)CC2)cc1` (stereo partly drawn) [Example 134, 6-amino-2′-fluoro-N-{(1S,2S)-2-[(4-{4-[4-(2-hydroxyethyl)piperazin-1-yl]-3,4-dihydro-2H-1-benzopyran-7-yl}phenyl)methoxy]cyclopentyl}[3,3′-bipyridine]-5-carboxamide], the IC50 against human AXL (473-end) is below 10 nM; on human MER (528-end), below 10 nM; at human TYRO3 (455-end), 100 to 1000 nM.

Regarding `Cn1cc(-c2cnc(N)c(C(=O)N[C@H]3CCC[C@@H]3OCc3ccc(-c4ccc5c(ccn5CCN)c4)cc3)c2)cn1` [Example 67, 2-amino-N-[(1S,2S)-2-({4-[1-(2-aminoethyl)-1H-indol-5-yl]phenyl}methoxy)cyclopentyl]-5-(1-methyl-1H-pyrazol-4-yl)pyridine-3-carboxamide], the IC50 on human AXL (473-end) is below 10 nM; on human MER (528-end), below 10 nM; at human TYRO3 (455-end) it was 100 to 1000 nM.

With `Cn1ccc(-c2cnc(N)c(C(=O)N[C@H]3CCC[C@@H]3OCc3ccc(-c4ccc5c(c4)C(C)(C)CN5C4CCN(CCO)CC4)cc3)c2)cc1=O` [Example 30, 6-amino-N-{(1S,2S)-2-[(4-{1-[1-(2-hydroxyethyl)piperidin-4-yl]-3,3-dimethyl-2,3-dihydro-1H-indol-5-yl}phenyl)methoxy]cyclopentyl}-1′-methyl-2′-oxo-1′,2′-dihydro[3,4′-bipyridine]-5-carboxamide], the IC50 against human AXL (473-end) was below 10 nM; at human MER (528-end) it was below 10 nM; at human TYRO3 (455-end), 10 to 100 nM.

With `CN1CCN([C@H]2CCc3cc(-c4ccc(CO[C@H]5CCC[C@@H]5NC(=O)c5cc(-c6cccnc6F)cnc5N)cc4)ccc32)CC1` [Example 116, 6-amino-2′-fluoro-N-[(1S,2S)-2-({4-[(1S)-1-(4-methylpiperazin-1-yl)-2,3-dihydro-1H-inden-5-yl]phenyl}methoxy)cyclopentyl][3,3′-bipyridine]-5-carboxamide], the figures for the IC50 on human AXL (473-end), on human MER (528-end) and on human TYRO3 (455-end) were below 10 nM, below 10 nM and 100 to 1000 nM, respectively.

Take `Nc1ncc(C(F)(F)F)cc1C(=O)N[C@H]1CCC[C@@H]1OCc1ccc(-c2ccc3c(c2)OCCC3N2CCN(CCO)CC2)cc1` (stereo partly drawn) [Example 133, 2-amino-N-{(1S,2S)-2-[(4-{4-[4-(2-hydroxyethyl)piperazin-1-yl]-3,4-dihydro-2H-1-benzopyran-7-yl}phenyl)methoxy]cyclopentyl}-5-(trifluoromethyl)pyridine-3-carboxamide]: the IC50 on human AXL (473-end) is below 10 nM; at human MER (528-end) it was below 10 nM; on human TYRO3 (455-end), above 1000 nM.
